From patent US9145411B2, “Substituted amino-pyrimidine derivatives” (Asana Biosciences, LLC, priority 2012, dated 2015)

Assays:
PI3Kα (wild-type) = target: T1, PI3Kα (wild-type) (Homo sapiens, UniProt P42336); test: PI3 Kinase TR-FRET assay, PI3Kα (wild-type); type: biochemical; conditions: wild-type P110/P85α, 10 μM ATP
T1 construct: made in house; host or cells: SF9 insect cells
Procedure, shortened: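 Sf9-expressed, Ni-purified p110/p85α (5 ng) with PIP2 was preincubated with compound for 60 min at room temperature in buffer with 40 mM MgCl2 and 5 mM DTT. The reaction ran 30 min at room temperature with 10 μM PIP2 and 10 μM ATP. The TR-FRET 665/615 nm ratio was used to derive IC50 from dose-response curves.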

mTOR kinase = target: T2, mTOR kinase (Homo sapiens, UniProt P42345); test: mTOR kinase TR-FRET assay; type: biochemical; conditions: 20 μM ATP
T2 construct: purchased Millipore, USA
Procedure, shortened: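 Test compounds were pre-incubated 60 min with mTOR (5 ng), then ULight-p70 S6K (Thr389) peptide (50 nM) and ATP (20 μM) were added in HEPES 50 mM pH 7.5, EGTA, MnCl2 3 mM. After 60 min at room temperature, EDTA stop and Eu-anti-phospho antibody TR-FRET (665/615 nm) gave IC50 from sigmoidal variable-slope fits.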

pAkt(T308) = test: In-cell Western assay, pAkt(T308), PC3 cells; type: cell-based; conditions: Homo sapiens, PC-3, 2 hours incubation
Description: Cells from human prostate cancer cell line PC3 (American Type Culture Collection (ATCC), Manassas, Va. 20108 USA) were seeded at an optimal density of 22,000 cell/well in 96-well plates containing Ham's F12K medium (90 μL) and incubated overnight. The compound dilutions were carried out in 100% DMSO followed by a dilution in the medium. Test compounds were added in serial dilutions to the wells and incubated for 2 hours. The cells were washed and fixed with 4% paraformaldehyde. After incubation at room temperature for 1 hour in the dark, blocking was done for 2 hours at room temperature. Primary antibodies for pAkt(S473) ([…] phosphorylated at serine 473), pAkt(T308) (Akt phosphorylated at threonine 308) and for pS6RP (S235/236) (phosphorylated at serine 235/236) (commercially available from Cell Signaling Technology®, whose protocol was followed for the in-cell western assay, were diluted to the required concentration and added to the corresponding wells followed by overnight incubation at 4° C. Eu-labeled rabbit (PE) (Perkin-Elmer USA catalog #AD0106) secondary antibody was added and incubated for 2 hours at room temperature. Delfia® enhancement solution (cat #1244-105, Perkin Elmer USA) was subsequently added to the plate before taking the reading at 615 nm with excitation wavelength of 340 nm, after which 0.5 μg/mL of Hoechst® 33258 dye (Catalog #86140-5, Sigma) was added to the plate and fluorescence emission was read at 460 nm with 355 nm excitation, to evaluate the correction factor. IC50 values were calculated using a sigmoidal dose-response curve fit in GraphPad Prism® v5 software.

PC3 cells = test: XTT assay for cell viability, PC3 cells; type: cell-based; conditions: Homo sapiens, PC-3; PC3 cell proliferation, 96 hours
Description: Using a commercial kit from Sigma Aldrich (Catalog #X34251) and following its protocol, PC3 cells in the log phase of growth were employed and seeded at an optimal density of 1000 cell/well on to 96 well plates and incubated for 24 hours followed by the addition of compounds of formula (I) in serial dilutions. Compound dilutions were made in DMSO. The cells were incubated with the compounds of formula (I) for 96 hours and XTT tetrazolium dye (Sigma, USA) was subsequently added and incubated at 37° C. After the color formation, absorbance was measured at 465 nm in a Spectramax® Gemini spectrophotometer. EC50 values were calculated using a sigmoidal dose response curve fit in GraphPad Prism® v5 software. The tested compounds of formula (I) which caused inhibition of PC3 cell proliferation as determined by this assay protocol are shown in Table 2.

T2 sequence (P42345 1362-2549 limits assumed): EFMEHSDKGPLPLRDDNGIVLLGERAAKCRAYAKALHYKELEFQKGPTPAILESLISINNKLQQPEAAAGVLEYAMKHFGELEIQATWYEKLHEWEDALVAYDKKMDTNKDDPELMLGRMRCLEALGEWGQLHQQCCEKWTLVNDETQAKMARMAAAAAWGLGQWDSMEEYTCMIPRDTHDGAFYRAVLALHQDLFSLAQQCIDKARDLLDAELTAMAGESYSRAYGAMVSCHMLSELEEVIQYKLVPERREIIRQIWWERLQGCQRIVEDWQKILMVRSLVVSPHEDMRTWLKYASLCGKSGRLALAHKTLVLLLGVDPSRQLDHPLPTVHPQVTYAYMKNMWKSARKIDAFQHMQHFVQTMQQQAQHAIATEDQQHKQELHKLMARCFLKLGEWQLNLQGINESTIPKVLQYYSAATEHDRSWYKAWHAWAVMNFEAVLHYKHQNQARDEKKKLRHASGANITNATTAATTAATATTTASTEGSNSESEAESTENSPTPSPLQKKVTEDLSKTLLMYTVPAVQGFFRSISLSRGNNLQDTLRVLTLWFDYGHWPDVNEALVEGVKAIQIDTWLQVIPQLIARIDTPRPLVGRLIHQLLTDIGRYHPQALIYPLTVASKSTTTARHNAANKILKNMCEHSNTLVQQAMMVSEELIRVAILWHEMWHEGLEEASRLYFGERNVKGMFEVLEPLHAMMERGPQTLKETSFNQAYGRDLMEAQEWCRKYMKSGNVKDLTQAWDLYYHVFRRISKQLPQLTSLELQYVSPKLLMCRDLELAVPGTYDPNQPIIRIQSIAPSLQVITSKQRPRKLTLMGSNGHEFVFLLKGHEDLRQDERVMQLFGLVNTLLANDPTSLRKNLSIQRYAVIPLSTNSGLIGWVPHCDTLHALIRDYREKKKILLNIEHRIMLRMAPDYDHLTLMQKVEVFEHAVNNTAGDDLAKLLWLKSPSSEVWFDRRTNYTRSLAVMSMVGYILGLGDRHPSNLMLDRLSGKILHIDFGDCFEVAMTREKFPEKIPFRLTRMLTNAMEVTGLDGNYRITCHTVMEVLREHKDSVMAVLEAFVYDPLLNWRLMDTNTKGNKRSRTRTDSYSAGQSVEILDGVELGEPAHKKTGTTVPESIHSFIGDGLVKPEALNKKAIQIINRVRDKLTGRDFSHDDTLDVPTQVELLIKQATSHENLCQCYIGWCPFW
T1 sequence (P42336 whole entry, species assumed): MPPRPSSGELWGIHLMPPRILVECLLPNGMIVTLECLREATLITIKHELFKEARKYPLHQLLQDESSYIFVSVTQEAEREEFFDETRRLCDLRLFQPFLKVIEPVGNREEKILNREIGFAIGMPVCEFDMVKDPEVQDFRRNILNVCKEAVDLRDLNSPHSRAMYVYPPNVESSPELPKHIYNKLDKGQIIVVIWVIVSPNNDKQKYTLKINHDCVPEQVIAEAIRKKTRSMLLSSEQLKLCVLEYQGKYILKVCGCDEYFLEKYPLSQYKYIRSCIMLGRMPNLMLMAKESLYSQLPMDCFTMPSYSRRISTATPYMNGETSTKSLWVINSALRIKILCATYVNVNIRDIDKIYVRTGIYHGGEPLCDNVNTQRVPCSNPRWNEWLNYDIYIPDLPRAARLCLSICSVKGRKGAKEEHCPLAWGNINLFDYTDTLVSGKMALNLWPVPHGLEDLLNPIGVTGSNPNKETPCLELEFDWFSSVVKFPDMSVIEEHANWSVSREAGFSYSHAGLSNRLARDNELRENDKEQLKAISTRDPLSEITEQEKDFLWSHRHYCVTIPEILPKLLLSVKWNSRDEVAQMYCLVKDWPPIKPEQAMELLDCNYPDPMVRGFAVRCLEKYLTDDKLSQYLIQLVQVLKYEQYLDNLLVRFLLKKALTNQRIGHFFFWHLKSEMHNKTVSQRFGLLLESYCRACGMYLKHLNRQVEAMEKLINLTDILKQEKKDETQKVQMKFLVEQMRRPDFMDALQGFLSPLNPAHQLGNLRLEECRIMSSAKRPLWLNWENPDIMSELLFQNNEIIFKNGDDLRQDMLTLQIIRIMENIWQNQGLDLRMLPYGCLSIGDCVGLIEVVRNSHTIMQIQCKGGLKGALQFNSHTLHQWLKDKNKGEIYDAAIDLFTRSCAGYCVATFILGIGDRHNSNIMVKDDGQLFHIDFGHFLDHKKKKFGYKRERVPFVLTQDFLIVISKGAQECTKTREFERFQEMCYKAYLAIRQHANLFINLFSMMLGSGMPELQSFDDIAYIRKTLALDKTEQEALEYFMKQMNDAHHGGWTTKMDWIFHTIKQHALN
T1 sequence (P27986 whole entry partner, species assumed): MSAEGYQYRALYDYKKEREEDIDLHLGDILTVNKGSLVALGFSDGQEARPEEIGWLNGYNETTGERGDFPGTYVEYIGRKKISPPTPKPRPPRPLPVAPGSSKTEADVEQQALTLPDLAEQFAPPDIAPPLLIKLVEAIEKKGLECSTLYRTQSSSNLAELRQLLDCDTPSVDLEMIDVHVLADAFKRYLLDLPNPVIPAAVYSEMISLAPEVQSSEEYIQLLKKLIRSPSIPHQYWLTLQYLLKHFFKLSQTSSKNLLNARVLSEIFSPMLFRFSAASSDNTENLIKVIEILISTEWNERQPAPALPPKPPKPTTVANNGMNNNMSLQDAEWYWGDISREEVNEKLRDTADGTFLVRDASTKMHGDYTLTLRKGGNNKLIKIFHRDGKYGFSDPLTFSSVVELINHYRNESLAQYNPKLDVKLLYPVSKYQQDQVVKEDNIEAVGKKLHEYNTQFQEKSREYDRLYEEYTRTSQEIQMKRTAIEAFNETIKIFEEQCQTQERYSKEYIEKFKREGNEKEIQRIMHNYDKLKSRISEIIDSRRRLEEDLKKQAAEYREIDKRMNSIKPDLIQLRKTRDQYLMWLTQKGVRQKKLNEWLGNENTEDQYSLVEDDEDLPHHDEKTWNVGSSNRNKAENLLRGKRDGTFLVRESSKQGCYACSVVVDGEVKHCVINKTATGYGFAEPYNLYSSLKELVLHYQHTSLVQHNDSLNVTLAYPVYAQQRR

SMILES: Nc1ncc(-c2nc(N3CCOCC3)c3ncc(-c4cccc(NS(=O)(=O)c5ccc(F)cc5)c4)cc3n2)cn1 [Example 8, N-(3-(2-(2-aminopyrimidin-5-yl)-4-morpholinopyrido[3,2-d]pyrimidin-7-yl)phenyl)-4-fluorobenzenesulfonamide]
- IC50 (PI3Kα (wild-type)): < 50 nM
- IC50 (mTOR kinase): < 50 nM
- IC50 (pAkt(T308)): 100 to 500 nM
- IC50 (PC3 cells): 501 to 5000 nM

SMILES: CC(=O)Nc1ccc(-c2cnc3c(N4CCOCC4)nc(-c4cnc(N)nc4)nc3c2)cc1 [Example 54, N-(4-(2-(2-amino-pyrimidin-5-yl)-4-morpholinopyrido[3,2-d]pyrimidin-7-yl)-phenyl)acetamide]
- IC50 (PI3Kα (wild-type)): < 50 nM
- IC50 (mTOR kinase): < 50 nM
- IC50 (pAkt(T308)): < 100 nM
- IC50 (PC3 cells): 100 to 500 nM

SMILES: Nc1ncc(-c2nc(N3CCOCC3)c3ncc(-c4cncc(NC(=O)C5CC5)c4)cc3n2)cn1 [Example 31, N-(5-(2-(2-amino-pyrimidin-5-yl)-4-morpholinopyrido[3,2-d]pyrimidin-7-yl)pyridin-3-yl)cyclopropane-carboxamide]
- IC50 (PI3Kα (wild-type)): < 50 nM
- IC50 (mTOR kinase): < 50 nM
- IC50 (pAkt(T308)): 100 to 500 nM
- IC50 (PC3 cells): < 100 nM

SMILES: Nc1ncc(-c2nc(N3CCOCC3)c3ncc(-c4cccc(NC(=O)C5CCC5)c4)cc3n2)cn1 [Example 76, N-(3-(2-(2-amino-pyrimidin-5-yl)-4-morpholinopyrido[3,2-d]pyrimidin-7-yl)-phenyl)cyclobutane-carboxamide]
- IC50 (PI3Kα (wild-type)): < 50 nM
- IC50 (mTOR kinase): < 50 nM
- IC50 (pAkt(T308)): < 100 nM
- IC50 (PC3 cells): 100 to 500 nM

SMILES: Nc1ncc(-c2nc(N3CCOCC3)c3ncc(-c4cccc(NC(=O)c5cnccn5)c4)cc3n2)cn1 [Example 64, N-(3-(2-(2-amino-pyrimidin-5-yl)-4-morpholinopyrido[3,2-d]pyrimidin-7-yl)-phenyl)pyrazine-2-carboxamide]
- IC50 (PI3Kα (wild-type)): < 50 nM
- IC50 (pAkt(T308)): 100 to 500 nM

SMILES: CN1CCN(C(=O)c2ccc(-c3cnc4c(N5CCOCC5)nc(-c5cnc(N)nc5)nc4c3)o2)CC1 [Example 5, (5-(2-(2-Aminopyrimidin-5-yl)-4-morpholinopyrido[3,2-d]pyrimidin-7-yl)furan-2-yl)(4-methylpiperazin-1-yl)methanone]
- IC50 (PI3Kα (wild-type)): < 50 nM
- IC50 (mTOR kinase): 50 to 200 nM
- IC50 (pAkt(T308)): 100 to 500 nM

SMILES: CC(C)C(=O)Nc1cccc(-c2cnc3c(N4CCOCC4)nc(-c4cnc(N)nc4)nc3c2)c1 [Example 105, N-(3-(2-(2-amino-pyrimidin-5-yl)-4-morpholinopyrido[3,2-d]-pyrimidin-7-yl)-phenyl)isobutyramide]
- IC50 (PI3Kα (wild-type)): < 50 nM
- IC50 (mTOR kinase): < 50 nM
- IC50 (pAkt(T308)): 501 to 5000 nM
- IC50 (PC3 cells): 100 to 500 nM

SMILES: Nc1ncc(-c2nc(N3CCOCC3)c3ncc(-c4cccc(NC(=O)c5cccnc5)c4)cc3n2)cn1 [Example 58, N-(3-(2-(2-amino-pyrimidin-5-yl)-4-morpholinopyrido[3,2-d]pyrimidin-7-yl)-phenyl)nicotinamide]
- IC50 (PI3Kα (wild-type)): < 50 nM
- IC50 (mTOR kinase): < 50 nM
- IC50 (pAkt(T308)): < 100 nM
- IC50 (PC3 cells): 100 to 500 nM

SMILES: Nc1ncc(-c2nc(N3CCOCC3)c3ncc(-c4cccc(NC(=O)CN5CCOCC5)c4)cc3n2)cn1 [Example 84, N-(3-(2-(2-aminopyrimidin-5-yl)-4-morpholinopyrido[3,2-d]pyrimidin-7-yl)phenyl)-2-morpholinoacetamide]
- IC50 (PI3Kα (wild-type)): < 50 nM
- IC50 (mTOR kinase): < 50 nM
- IC50 (pAkt(T308)): 100 to 500 nM
- IC50 (PC3 cells): 100 to 500 nM

SMILES: Nc1ncc(-c2nc(N3CCOCC3)c3ncc(-c4cccc(NC(=O)CN5CCC(O)CC5)c4)cc3n2)cn1 [Example 9, N-(3-(2-(2-Aminopyrimidin-5-yl)-4-morpholinopyrido[3,2-d]pyrimidin-7-yl)-phenyl)-2-(4-hydroxypiperidin-1-yl)acetamide]
- IC50 (PI3Kα (wild-type)): < 50 nM
- IC50 (mTOR kinase): < 50 nM
- IC50 (pAkt(T308)): < 100 nM
- IC50 (PC3 cells): 100 to 500 nM

SMILES: N#CCC(=O)Nc1cccc(-c2cnc3c(N4CCOCC4)nc(-c4cnc(N)nc4)nc3c2)c1 [Example 53, N-(3-(2-(2-amino-pyrimidin-5-yl)-4-morpholinopyrido[3,2-d]pyrimidin-7-yl)phenyl)-2-cyanoacetamide]
- IC50 (PI3Kα (wild-type)): < 50 nM
- IC50 (mTOR kinase): < 50 nM
- IC50 (pAkt(T308)): 100 to 500 nM
- IC50 (PC3 cells): 100 to 500 nM

SMILES: CNC(=O)c1ccc(-c2cnc3c(N4CCOCC4)nc(-c4cnc(N)nc4)nc3c2)cc1 [Example 33, 4-(2-(2-aminopyrimidin-5-yl)-4-morpholinopyrido[3,2-d]pyrimidin-7-yl)-N-methylbenzamide]
- IC50 (PI3Kα (wild-type)): < 50 nM
- IC50 (mTOR kinase): < 50 nM
- IC50 (pAkt(T308)): 100 to 500 nM
- IC50 (PC3 cells): 100 to 500 nM

SMILES: CNC(=O)Nc1ccc(-c2cnc3c(N4CCOCC4)nc(-c4cnc(N)nc4)nc3c2)cc1 [Example 29, 1-(4-(2-(2-amino-pyrimidin-5-yl)-4-morpholinopyrido[3,2-d]pyrimidin-7-yl)phenyl)-3-methylurea]
- IC50 (PI3Kα (wild-type)): < 50 nM
- IC50 (mTOR kinase): < 50 nM
- IC50 (pAkt(T308)): 100 to 500 nM
- IC50 (PC3 cells): 100 to 500 nM

SMILES: CN(C)CCNC(=O)c1cccc(-c2cnc3c(N4CCOCC4)nc(-c4cnc(N)nc4)nc3c2)c1 [Example 102, 3-(2-(2-aminopyrimidin-5-yl)-4-morpholinopyrido[3,2-d]-pyrimidin-7-yl)-N-(2-(dimethylamino)ethyl)-benzamide]
- IC50 (PI3Kα (wild-type)): < 50 nM
- IC50 (mTOR kinase): 50 to 200 nM
- IC50 (PC3 cells): 100 to 500 nM

SMILES: CN1CCN(CC(=O)Nc2cccc(-c3cnc4c(N5CCOCC5)nc(-c5cnc(N)nc5)nc4c3)c2F)CC1 [Example 86, N-(3-(2-(2-amino-pyrimidin-5-yl)-4-morpholinopyrido[3,2-d]-pyrimidin-7-yl)-2-fluoro-phenyl)-2-(4-methyl-piperazin-1-yl)acetamide]
- IC50 (PI3Kα (wild-type)): < 50 nM
- IC50 (mTOR kinase): 50 to 200 nM
- IC50 (pAkt(T308)): 501 to 5000 nM

SMILES: CN1CCN(CC(=O)Nc2cccc(-c3cnc4c(N5CCOCC5)nc(-c5cnc(N)nc5)nc4c3)c2)CC1 [Example 83, N-(3-(2-(2-aminopyrimidin-5-yl)-4-morpholinopyrido[3,2-d]pyrimidin-7-yl)phenyl)-2-(4-methylpiperazin-1-yl)acetamide]
- IC50 (PI3Kα (wild-type)): < 50 nM
- IC50 (mTOR kinase): 50 to 200 nM
- IC50 (PC3 cells): 100 to 500 nM

SMILES: Nc1ncc(-c2nc(N3CCOCC3)c3ncc(-c4cccc(C(=O)Nc5ccncc5F)c4)cc3n2)cn1 [Example 97, 3-(2-(2-aminopyrimidin-5-yl)-4-morpholinopyrido[3,2-d]-pyrimidin-7-yl)-N-(3-fluoropyridin-4-yl)-benzamide]
- IC50 (PI3Kα (wild-type)): < 50 nM
- IC50 (mTOR kinase): < 50 nM
- IC50 (PC3 cells): 100 to 500 nM

SMILES: Nc1ncc(-c2nc(N3CCOCC3)c3ncc(-c4cccc(N5CCN(CCO)CC5)c4)cc3n2)cn1 [Example 113, 2-(4-(3-(2-(2-amino-pyrimidin-5-yl)-4-morpholinopyrido[3,2-d]pyrimidin-7-yl)-phenyl)piperazin-1-yl)-ethanol]
- IC50 (PI3Kα (wild-type)): < 50 nM
- IC50 (mTOR kinase): < 50 nM
- IC50 (PC3 cells): 501 to 5000 nM

SMILES: Nc1ncc(-c2nc(N3CCOCC3)c3ncc(-c4cccc(NC(=O)c5cncc(F)c5)c4)cc3n2)cn1 [Example 99, N-(3-(2-(2-amino-pyrimidin-5-yl)-4-morpholinopyrido[3,2-d]-pyrimidin-7-yl)phenyl)-5-fluoronicotinamide]
- IC50 (PI3Kα (wild-type)): < 50 nM
- IC50 (mTOR kinase): < 50 nM
- IC50 (PC3 cells): 100 to 500 nM

SMILES: Nc1ncc(-c2nc(N3CCOCC3)c3ncc(-c4cccc(NC(=O)C56CC7CC(CC(C7)C5)C6)c4)cc3n2)cn1 [Example 65, N-(3-(2-(2-amino-pyrimidin-5-yl)-4-morpholinopyrido[3,2-d]pyrimidin-7-yl)-phenyl)adamantane-1-carboxamide]
- IC50 (PI3Kα (wild-type)): < 50 nM
- IC50 (mTOR kinase): 201 to 10000 nM
- IC50 (PC3 cells): 501 to 5000 nM
